Laboratory results taken from patent US20240327406A1, “POTASSIUM CHANNEL MODULATORS” (Autifony Therapeutics Limited, priority 2021, published 2024).
Several values for one entry are separate records, joined by “and”; a condition that tells them apart may be missing. Equal entries are not always repeated. Where two headings read alike, the source gives them in different places.

Assays:
[1] = biological target: T1, human Kv3.1 channels (hKv3.1) (Homo sapiens, UniProt P48547); assay: Measurement of Kv3 channel modulation: Kv3.1 assay (IonWorks Quattro whole-cell electrophysiology); type: cell-based; conditions: for Kv3.1 max R %: normalised to maximum effect of reference compound (50 microM); for EC50: read-out: Kv3.1 pEC50 (converted)
T1 sequence (P48547 1-501 limits assumed): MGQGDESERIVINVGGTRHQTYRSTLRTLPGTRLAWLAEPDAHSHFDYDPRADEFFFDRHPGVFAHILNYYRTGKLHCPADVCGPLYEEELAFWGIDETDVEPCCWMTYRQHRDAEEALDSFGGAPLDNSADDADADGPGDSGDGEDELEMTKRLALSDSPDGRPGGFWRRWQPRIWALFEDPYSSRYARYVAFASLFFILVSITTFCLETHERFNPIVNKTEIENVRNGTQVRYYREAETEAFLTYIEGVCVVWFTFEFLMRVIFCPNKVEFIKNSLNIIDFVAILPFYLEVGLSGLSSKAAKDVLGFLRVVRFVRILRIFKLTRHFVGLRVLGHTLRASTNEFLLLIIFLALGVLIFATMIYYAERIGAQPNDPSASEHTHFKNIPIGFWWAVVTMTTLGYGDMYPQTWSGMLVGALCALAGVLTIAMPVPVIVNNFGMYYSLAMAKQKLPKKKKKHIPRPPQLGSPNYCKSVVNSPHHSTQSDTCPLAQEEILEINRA

[2] = Determination of in vivo pharmacokinetic parameters (blood and brain concentrations); conditions: male, rat
Method: Adult male rats (Charles River, Italy) are dosed with test compound orally at 1 mg/kg (5 ml/kg, in 5% v/v DMSO, 0.5% w/v HPMC in water) and intravenously at 0.5 mg/kg (2 ml/kg, in 5% v/v DMSO 40% w/v PEG400 in saline). After oral administration, blood samples are collected under deep Isofluorane anesthesia from the portal vein and heart of each rat (1 rat per time point). After intravenous administration, serial blood samples are collected from the lateral tail vein of each rat. Blood and brain samples are collected at a single timepoint of 0.5 h after dose administration for these animals. In all cases, blood samples are collected into potassium EDTA tubes.
A further group of rats (n=1 per test compound) receive a single intravenous administration of the PgP transport inhibitor, Elacridar (3 mg/kg) shortly before the oral administration of the test compound at 1 mg/kg, as above.
Blood and brain samples can be assayed for test compound concentration using a method based on protein precipitation with acetonitrile followed by HPLC/MS-MS analysis with an optimized analytical method.
The concentrations of test compound in blood (expressed as ng/ml) and brain (expressed as ng/g) at the different time points following either oral or intravenous dosing are analysed using a non-compartmental pharmacokinetic model using WinNonLin Professional version 4.1. The following parameters are derived:
Intravenous dosing: Maximum concentration over time (Cmax), integrated concentration over time (AUC), clearance (Clb), volume of distribution (Vss), half-life (t1/2) and Brain/Heart Blood conc @0.5 hr.
Oral dosing: Cmax, time of maximum concentration (Tmax), AUC, bioavailability (F %), fraction absorbed (Fa %), blood to brain ratio (AUC B/B), and Fold-change in AUC B/B in the presence of Elacridar.

[3] = Table 2, Example compounds, rounded to one decimal place, some compounds with two data sets (n given in cell)

Compound | Kv3.1 max R % ([1]; Table 2, Example compounds) | EC50 [1, 3] [nM] | EC50 ([1]; Table 5, Example compounds) [nM] | Kp ([2]; brain and blood, oral dosing 1 mg/kg, read-out: AUC B/B (brain/blood) ratio) | Kp at 0.5 h ([2]; brain and heart blood, intravenous, 0.5 mg/kg, 0.5 h after dose administration, read-out: Brain/Heart Blood conc @0.5 hr)
Cc1ccc(Oc2ccc(-n3c(=O)[nH]c4cccnc43)cn2)cc1OC(F)(F)F [Example 4, 3-[6-[4-methyl-3-(trifluoromethoxy)phenoxy]-3-pyridyl]-1H-imidazo[4,5-b]pyridin-2-one] | 111% | 1260 | 1260 |  | 
O=c1[nH]c2cccnc2n1-c1cnc(Oc2cccc(OC(F)(F)F)c2)nc1 [Example 17, 3-[2-[3-(trifluoromethoxy)phenoxy]pyrimidin-5-yl]-1H-imidazo[4,5-b]pyridin-2-one] | 103% and 125% | 1260 | 1000 | 0.45 | 0.76
Cc1ccc(Oc2ncc(-n3c(=O)[nH]c4cccnc43)cn2)cc1OC(F)(F)F [Example 32, 3-[2-[4-methyl-3-(trifluoromethoxy)phenoxy]pyrimidin-5-yl]-1H-imidazo[4,5-b]pyridin-2-one] | 174% | 1580 | 1580 |  | 
